Assays:
[1] = test system: PBMC (peripheral blood mononuclear cells); experiment: two-way mixed lymphocyte reaction (MLR), proliferative response of PBMC to allogeneic stimulation; assay type: cell-based, human; conditions: for IC50: Homo sapiens, PBMC, mixed lymphocyte reaction; for immune modulating activity compared with PTX: two-way MLR, FIG. 1
Description: Various in vitro assays can be used to measure effects of the inventive compounds to module immune activity and have antitumor activity using a variety of cellular types. For example, a mixed lymphocyte reaction (MLR) provides a valuable screening tool to determine biological activity of each inventive compound. In the MLR, PBMCs (peripheral blood mononuclear cells) are obtained by drawing whole blood from healthy volunteers in a heparinized container and diluted with an equal volume of hanks balanced salt solution (HBSS). This mixture is layered on a sucrose density gradient, such as a Ficoll-Hypaque® gradient (specific gravity 1.08), and centrifuged at 1000×g for 25 minutes at room temperature or cooler. PBMC are obtained from a band at a plasma-Ficoll interface, separated and washed at least twice in a saline solution, such as HBSS. Contaminating red cells are lysed, such as by ACK lysis for 10 min at 37° C., and the PBMCs are washed twice in HBSS. The pellet of purified PBMCs is resuspended in complete medium, such as RPMI 1640 plus 20% human inactivated serum. Proliferative response of PBMC to allogeneic stimulation is determined in a two-way MLR performed in a 96-well microtiter plate. Briefly, approximately 10^5 test purified PBMC cells in […] complete medium are co-cultured with approximately 10^5 autologous (control culture) or allogeneic (stimulated culture) PBMC cells, wherein the allogeneic cells are from HLA disparate individuals. Varying doses of compounds (drug) are added at the time of addition of cells to the microtiter plate. The cultures are incubated for 6 days at 37° C. in a 5% CO2 atmosphere. At the conclusion of the incubation tritiated thymidine is added (for example, 1 µCi/well of 40 to 60 Ci/mmole) and proliferation determined by liquid scintillation counting.
This example illustrates the effect of compounds nos. 1551 and 1559 as an immune modulator. […] 1551 and 1559 (see above for chemical names and structures).

human stromal cells = experiment: PDGF-induced proliferation of human stromal cells; assay type: cell-based; conditions: 50 ng/ml PDGF-BB, drug added one hour before, tritiated thymidine, FIG. 2
Procedure: (§1) Another assay for measuring activity of the inventive compounds involves determining PDGF, FGF or VEGF proliferative response using either mouse NIH-3T3 (Balb) cells or human-derived stromal cells. Human stromal cells are plated (e g., about 2000 cells per well) in defined media (e.g., 69% McCoy's, 12.5% fetal calf serum, 12.5% horse serum, 1% antibiotics, 1% glutamine, 1% vitamin supplement, 0.8% essential amino acids, 1% sodium pyruvate, 1% sodium bicarbonate, 0.4% non-essential amino acids and 0.36% hydrocortisone). Two to three days later, the stromal cells are starved in serum-free media. Twenty four hours later, the cells are treated with a stimulating agent, such as PDGF-AA, PDGF-BB or basic FGF (fibroblast growth factor) with or without IL-1 or TNF, and tritiated thymidine. Cell proliferation is determined by liquid scintillation counting.
This example illustrates a comparison of compounds nos. 1551 and 1559 on PDGF-induced (platelet derived growth factor) proliferation of human stromal cells. Human stromal cells were starved in serum-free media for 24 hours and then stimulated with 50 ng/ml of PDGF-BB. The drugs were added at various indicated concentrations one hour prior to PDGF stimulation. Tritiated thymidine was added at the time of PDGF stimulation. The cells were harvested and counted by liquid scintillation 24 hours after stimulation with PDGF. […]

murine thymocytes = experiment: murine thymocyte proliferation co-stimulated by ConA and IL-2; assay type: cell-based, Balb/C mice; conditions: Mus musculus, ConA 0.25 mg/ml and IL-2 15 U/ml, drug added two hours before, 4 days
Description: This example illustrates dose response curves used to generate 50% inhibition concentration (IC50) of inventive compounds nos. 1551 and 1564 for murine thymocyte proliferation, co-stimulated by Concanavalin A (ConA) and interleukin-2 alpha (IL-2). ConA, used to activate CD3, along with IL-2 co-stimulation, induces T-cell proliferation and differentiation. Thymuses, obtained from normal, female Balb/C mice, were dissociated and plated into 96-well plates at a density of 2×10^5 cells/well. ConA (0.25 mg/ml) and IL-2 (15 U/ml) were added to the wells. The cells were incubated for 4 days at 37° C. On day 4, the cells were pulsed with tritiated thymidine and incubated for an additional 4 hours. The amount of tritiated thymidine dye incorporated by the harvested cells was determined in a liquid scintillation counter. Drug doses (shown in FIGS. 7A and 7B) were added two hours prior to ConA and IL-2 activation. Background counts were less than 200 cpm. […] 1551 and 1564 are 28 and 49 μM.

VCAM = experiment: TNF-induced cell surface expression of VCAM in HUVEC, flow cytometry; assay type: cell-based, human; conditions: for % of cells in gate (VCAM expression): 20 ng/ml TNF for 20 hours, 1559 at 0.25 mM one hour prior to TNF, TNF alone 34.5%, non-induced 0.4%
Procedure: This example illustrates the effect of compound no. 1559 on inhibiting cell surface expression of VCAM in human umbilical vein endothelial cells (HUVEC). The HUVEC cells were stimulated with 20 ng/ml TNF- for 20 hours and then stained for immunofluorescence using a monoclonal antibody recognizing VCAM, followed by a goat anti-mouse antibody conjugated to phycoerythrin. The cells were analyzed for antibody binding using flow cytometry. […] The top left histogram is non-TNF induced expression of VCAM (% of cells in gate A is 0.4%). […] 1559 (0.25 mM), one hour prior to TNF addition (% of cells in gate C is 24%).
This example illustrates the effect of compound no. 1559 on inhibiting cell surface expression of VCAM in HUVEC cells. The cells were stimulated with TNF- (20 ng/ml) for 20 hours and then stained for immunofluorescence using a monoclonal antibody recognizing VCAM, followed by a goat anti-mouse antibody conjugated to phycoerythrin. The cells were analyzed for antibody binding using flow cytometry. […] The mean fluorescence levels were decreased by compound no. 1559 treatment (1.7 fold decrease) when compared with control levels (TNF treatment, no drug).

Balb/3T3 cells = experiment: PDGF-BB-induced proliferation of Balb/3T3 cells; assay type: cell-based, mouse; conditions: tritiated thymidine, FIGS. 8A and 9A
Procedure: as §1
Balb/3T3 cells respond vigorously to PDGF stimulation, and are useful in vitro models for further study of PDGF-induced proliferation. Disregulated PDGF-proliferative response has been linked to a variety of diseases, including, e.g., restenosis, atherosclerosis, fibrosis, and tumor cell angiogenesis. Cells were plated in low serum-containing medium for 24 hours prior to stimulation with various concentrations (as reported in FIGS. 8A and 9A) of inventive compounds nos.2556 and 3504 (FIGS. 8A and 9A, respectively). […]

[2] = test system: LD-2 cells, a human malignant melanoma cell line; experiment: cytotoxicity on LD-2 cells (BCECF viability stain); assay type: cell-based; conditions: various concentrations, FIG. 3
Procedure: (§2) This example provide data from an experiment measuring compound no. 1559 cytotoxicity on LD-2 cells, a human malignant melanoma cell line. The cells were treated with various concentrations of compound no. 1559 and later stained for cell viability with a fluorescence stain (BCECF) and analyzed using a Milipore fluorescence plate reader.

NIH-3T3 Ras cells = experiment: cytotoxicity on NIH-3T3 Ras cells (BCECF viability stain); assay type: cell-based, mouse; conditions: various concentrations, FIG. 4
Procedure: as §2, with “provides” for “provide”, “NIH-3T3 cells and their Ras transformed counterpart, NIH-3T3 Ras cells.” for “LD-2 cells, a human malignant melanoma cell line.”

NIH-3T3 cells = experiment: cytotoxicity on NIH-3T3 cells (BCECF viability stain); assay type: cell-based, mouse; conditions: various concentrations, FIG. 4
Procedure: as §2, with “provides” for “provide”, “NIH-3T3 cells and their Ras transformed counterpart, NIH-3T3 Ras cells.” for “LD-2 cells, a human malignant melanoma cell line.”

IL-12 signaling = experiment: IL-12 dependent in vitro T-helper cell (Th1) differentiation assay; assay type: cell-based; conditions: anti-CD3 stimulated splenic T cells, 5 U/ml IL-12, compound present during T cell activation
Procedure: This example illustrates the assay used to determine the effect of compounds of this invention in suppressing Th1 differentiation in vitro by blocking IL-12 signaling. Compounds are tested in an IL-12 dependent in vitro T-helper cell differentiation assay as described in LeGross et al., J. Exp. Med., 172:921-929 (1990). Recombinant IL-12 is used to induce Th1 differentiation. Splenic T cells are purified utilizing the antibodies RA3-3A1/6.1 (anti-B220), J11d and MAR8.5 (anti-rat kappa chain) to deplete the B cells via complement mediated toxicity following the procedure set forth in Klaus et al., J. Immunol., 149:1867-1875 (1992). Splenic T cells are stimulated at 5×10^5/ml with insoluble anti-CD3 alone (145-2C11, Pharmingen, San Diego, Calif.), or anti-CD3 and 5 U/ml IL-12, with and without each inventive compound. After seven days, equal numbers of viable cells are restimulated for 24 hours with anti-CD3 without the inventive compounds, and the supernatants are collected and assayed for IFN-γ production. IFN-γ and IL-4 levels are measured by Intertest kits from Genzyme specific for IFN-γ and IL-4.
Th1 differentiation is induced by culturing anti-CD3 stimulated T cells in the presence of exogenous IL-12. […] Neither the viability or recovery of T cells after one week of culture in the presence of the compound.

Compound: Cn1cnc2c1c(=O)n(CCCCCCO)c(=O)n2C [Compound 1556, 1-(6-Hydroxyhexyl)-3,7-dimethylxanthine]
- IC50 [1]: > 500 µM

Compound: CC(O)CCCCCCCn1c(=O)c2c(ncn2C)n(C)c1=O (centres unmarked) [Compound 1551, 1-(8-Hydroxynonyl)-3,7-dimethylxanthine]
- inhibition of PDGF-induced stimulation (proliferation) (human stromal cells): inhibited PDGF-induced stimulation
- IC50 [1]: 120 µM
- immune modulating activity compared with PTX [1]: more effective and more potent than PTX
- IC50 (murine thymocytes): 28 µM

Compound: Cn1cnc2c1c(=O)n(CCCCCCC(O)CO)c(=O)n2C (centres unmarked) [Compound 1538, 1-(7,8-Dihydroxyoctyl)-3,7-dimethylxanthine]
- IC50 [1]: > 500 µM

Compound: CC(=O)CCCCn1c(=O)c2c(ncn2C)n(C)c1=O [PTX, 1-(5-oxohexyl)-3,7-dimethylxanthine, reference compound]
- % of cells in gate (VCAM expression) (VCAM): 36.8%

Compound: Cn1cnc2c1c(=O)n(CCCCCCCCCCCC(O)CO)c(=O)n2C (centres unmarked) [Compound 2556]
- inhibition of PDGF-induced proliferation (Balb/3T3 cells): inhibited PDGF-induced proliferation

Compound: Cn1cnc2c1c(=O)n(CCCCCCCCC(O)CO)c(=O)n2C (centres unmarked) [Compound 1564, 1-(9,10-Dihydroxydecyl)-3,7-dimethylxanthine]
- IC50 [1]: 210 µM
- IC50 (murine thymocytes): 49 µM

Compound: Cn1cnc2c1c(=O)n(CC(O)CO)c(=O)n2C (centres unmarked) [Compound 1540, 1-(2,3-Dihydroxypropyl)-3,7-dimethylxanthine]
- IC50 [1]: > 500 µM

Compound: Cn1cnc2c1c(=O)n(CCCCCCCCO)c(=O)n2C [Compound 1546, 1-(8-Hydroxyoctyl)-3,7-dimethylxanthine]
- IC50 [1]: 320 µM

Compound: Cn1cnc2c1c(=O)n(CCCCCCCCCCO)c(=O)n2C [Compound 1559, 1-(10-Hydroxydecyl)-3,7-dimethylxanthine]
- cytotoxicity [2]: cytotoxic at higher concentrations
- cytotoxicity (NIH-3T3 Ras cells): cytotoxic at higher concentrations
- inhibition of PDGF-induced stimulation (proliferation) (human stromal cells): inhibited PDGF-induced stimulation
- IC50 [1]: 150 µM
- immune modulating activity compared with PTX [1]: more effective and more potent than PTX
- % of cells in gate (VCAM expression) (VCAM): 24%
- decrease of mean fluorescence levels (VCAM) compared with control (TNF treatment, no drug) (VCAM; TNF 20 ng/ml for 20 hours, FIG. 6): 1.7 fold decrease
- cytotoxicity (NIH-3T3 cells): cytotoxic at higher concentrations

Compound: CC(O)CCCn1c(=O)c2c(ncn2C)n(C)c1=O (centres unmarked) [Compound 1542, 1-(4-Hydroxypentyl)-3,7-dimethylxanthine]
- IC50 [1]: > 500 µM

Compound: Cn1cnc2c1c(=O)n(CCCCCCCO)c(=O)n2C [Compound 1545, 1-(7-Hydroxyheptyl)-3,7-dimethylxanthine]
- IC50 [1]: 300 µM

Compound: CC(O)CCCCCCCCCCCCn1c(=O)c2c(ncn2C)n(C)c1=O (centres unmarked) [Compound 3504, 1-(13-Hydroxytetradecyl)-3,7-dimethylxanthine]
- inhibition of PDGF-induced proliferation (Balb/3T3 cells): inhibited PDGF-induced proliferation

Compound: Cn1cnc2c1c(=O)n(CCCCCCCC(O)CO)c(=O)n2C (centres unmarked) [Compound 1561, 1-(8,9-Dihydroxynonyl)-3,7-dimethylxanthine]
- IC50 [1]: 185 µM

Compound: CC(O)CCCCCCn1c(=O)c2c(ncn2C)n(C)c1=O (centres unmarked) [Compound 1536, 1-(7-Hydroxyoctyl)-3,7-dimethylxanthine]
- IC50 [1]: 250 µM
- inhibition of Th1 differentiation enhanced by exogenous IL-12 (IL-12 signaling): inhibited Th1 differentiation
